# Measurements: patent US8022249B2, “Compounds for the treatment of metabolic disorders” (Wellstat Therapeutics Corporation, priority 2005, dated 2011)
# Experiments:
# [1] = test system: ob/ob mice; test: Serum glucose, triglycerides, free fatty acids and insulin in ob/ob mice; assay type: in vivo; details: male ob/ob mice, 100 mg/kg daily oral doses for two weeks
# Protocol: Ob/ob mice have a defect in the gene for leptin, a protein involved in appetite regulation and energy metabolism, and are hyperphagic, obese, and insulin resistant. They develop hyperglycemia and fatty liver.
# (§1) Male ob/ob mice were divided into four treatment groups comprising six mice each, and given daily oral doses of Vehicle (1% hydroxypropylmethylcellulose) or 100 mg/kg Compound CT, Compound CV, or Compound BI (a positive control) for two weeks. Blood samples were collected form the retro-orbital sinus and processed for serum chemistry measurements.
# [2] = test system: ob/ob mice; test: Serum ALT and AST in ob/ob mice (animal model for NASH); assay type: in vivo; details: for ALT ± SD / AST ± SD: male ob/ob mice, 100 mg/kg daily oral doses for two weeks, serum
# Protocol: as §1
# Obese ob/ob mice develop chronic inflammatory fatty liver disease and are considered to be an animal model for nonalcoholic steatohepatitis (NASH), a condition which can lead toward progressive cirrhosis and liver dysfunction. In NASH, fat accumulation increases the susceptibility of the liver to inflammatory injury. One characteristic sign of NASH in patients is, in the absence of viral infection or alcoholism, elevated levels in serum of enzymes that are released from damaged hepatocytes, e.g. alanine aminotransferase (ALT) and Aspartate-aminotransferase (AST). These enzymes are elevated in ob/ob mice as a consequence of fatty liver and secondary inflammation. In Table 3, ALT and AST in serum samples from mice treated with Compound CT, Compound CV, and Compound BI are shown, as are enzyme levels in serum from control ob/ob mice treated only with vehicle. Treatment with Compound CT, Compound CV, and Compound BI reduced serum ALT and AST versus vehicle-treated ob/ob mice.
Structure (SMILES),Free Fatty Acids ± SD [1],Glucose ± SD [1],Insulin ± SD [1],Triglycerides ± SD [1],ALT ± SD [2],AST ± SD [2],serum ALT and AST versus vehicle-treated ob/ob mice (in words) [2]
"Cc1cccc(C)c1COc1cccc(C(=O)CCC(=O)O)c1 [Compound BI, 4-(3-(2,6-Dimethylbenzyloxy)phenyl)-4-oxobutyric acid, reference compound]",874 ± 74 µM,180 ± 19 mg/dL,1.1 ± 0.2 ng/mL,58 ± 2 mg/dL,330 ± 40 U/L,217 ± 24 U/L,reduced
"Cc1cccc(C)c1COc1cccc(CC(=O)NO)c1 [Compound CT, N-Hydroxy-2-[3-(2,6-dimethylbenzyloxy)phenyl]acetamide]",894 ± 55 µM,131 ± 21 mg/dL,3.1 ± 0.9 ng/mL,68 ± 6 mg/dL,230 ± 59 U/L,170 ± 23 U/L,reduced
"Cc1cccc(C)c1COc1cccc(CC(=O)NCCO)c1 [Compound CV, N-(2-Hydroxyethyl)-2-[3-(2,6-dimethylbenzyloxy)phenyl]acetamide]",1070 ± 60 µM,164 ± 10 mg/dL,5.0 ± 0.7 ng/mL,73 ± 5 mg/dL,484 ± 65 U/L,318 ± 48 U/L,reduced
